Data: paper PMC11053681, “Gold(I) and Silver(I) Complexes Containing Hybrid Sulfonamide/Thiourea Ligands as Potential Leishmanicidal Agents” (Pharmaceutics, 2024)

How the values were obtained:
[1] = tested on: Leishmania braziliensis; assay: Leishmanicidal activity against promastigotes (resazurin); format: cell-based
How it was run: (§1)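 Stationary-phase (day 5) metacyclic promastigotes were purified by centrifugation and plated at 1 × 10^7 parasites per well in Schneider medium. Compounds were tested in triplicate from 500 µM down to 3.9 µM by serial dilution for 24 h. Viability was read by resazurin fluorescence.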

[2] = tested on: Leishmania infantum; assay: as above; format: cell-based; conditions: promastigote form, 24 h treatment, resazurin; read-out: IC50 L. infantum
How it was run: as §1

[3] = Solubility in buffer for the fluorescence experiments; format: physicochemical; conditions: Tris-HCl buffer
How it was run: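 Compounds dissolved in DMSO and diluted in 25 mmol L^−1 Tris-HCl, pH 8.0, 100 mmol L^−1 NaCl, final DMSO 2.5%. Increasing ligand with 1 µmol L^−1 LbOYE held 1 h at 25 °C before fluorescence emission spectra were recorded.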

[4] = biological target: LbOYE (Leishmania braziliensis, UniProt A4H6Z3); assay: LbOYE enzyme kinetics (NADPH decay at 340 nm); format: biochemical; conditions: 20 µmol L^−1 compound, 1 µmol L^−1 LbOYE, 100 µmol L^−1 NADPH; substrates NEM and O2
Experimental: The initial rates were obtained through the decay of the band at 340 nm referring to the maximum absorption of the NADPH (Nicotinamide Adenine Dinucleotide Phosphate) reducer, as previously reported. Solutions containing 1 µmol L^−1 of LbOYE, DMSO or 20 µmol L^−1 of the tested compounds from a stock solution at a concentration of 5 mmol L^−1 in DMSO were prepared in the presence and absence of the substrate N-Ethylmaleimide (NEM). These solutions were left for 30 min at room temperature. After 30 min, the NADPH reducer was added at a final concentration of 100 µmol L^−1.
Figure 7 Initial velocity (V0) for the reaction between 1 µmol L^−1 of LbOYE and 100 µmol L^−1 of NADPH in the presence of DMSO (control) or 20 µmol L^−1 of the compounds tested. Using (A) 100 µmol L^−1 of NEM in the presence of O2 and (B) absence of NEM in the presence of O2. Experiments carried out in phosphate buffer 25 mmol L^−1 pH 7.0, NaCl 100 mmol L^−1.

Chain of LbOYE (A4H6Z3 entry or part of it): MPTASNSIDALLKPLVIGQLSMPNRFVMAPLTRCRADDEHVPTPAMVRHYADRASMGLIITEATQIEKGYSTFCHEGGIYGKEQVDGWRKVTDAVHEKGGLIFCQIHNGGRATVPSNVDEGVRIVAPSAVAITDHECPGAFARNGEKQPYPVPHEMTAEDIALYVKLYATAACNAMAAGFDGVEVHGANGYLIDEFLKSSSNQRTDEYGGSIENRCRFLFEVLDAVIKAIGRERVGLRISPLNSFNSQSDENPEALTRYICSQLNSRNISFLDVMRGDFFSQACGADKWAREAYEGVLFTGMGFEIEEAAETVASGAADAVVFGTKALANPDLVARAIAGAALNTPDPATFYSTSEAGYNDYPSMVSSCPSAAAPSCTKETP

Solubility in buffer at the concentrations for the fluorescence experiments, in words [3]: passed this stage
SMILES: Cc1ccc(S(=O)(=O)NNC(Nc2ccc(F)cc2)=[S][Ag+][S]=C(NNS(=O)(=O)c2ccc(C)cc2)Nc2ccc(F)cc2)cc1.O=[N+]([O-])[O-] [Ag3, [Ag(HL3^FPh)2]NO3]
IC50 ([1]; promastigote form, 24 h treatment, resazurin, read-out: IC50 L. braziliensis): 233.9 ± 0.031 µM
SI L. braziliensis ([1]; selectivity index = CC50 (Vero) / IC50 (L. braziliensis promastigotes)): >2.14
IC50 [2]: 92.83 ± 0.072 µM
Inhibition of LbOYE reaction (initial velocity V0), in words [4]: capable of inhibiting the reaction of the enzyme both with the NEM and for O2
